# Assay results as given in patent publication US20240156960A1 (priority 2020, published 2024).
# Where two headings read alike, the source gives them in different places.
# Experiments:
# [1] = system: coronavirus named in the cell (SARS-CoV2, SARS-CoV1); conditions: cited from earlier work
# [2] = system: coronavirus named in the cell (SARS-CoV2, SARS-CoV1), S protein; conditions: cited from earlier work
# [3] = Critical toxicity markers after dexamethasone pretreatment and IV DNA vector; conditions: pre-dosed IP 1 to 40 mg/kg
# SARS-CoV2 [4] = conditions: Protein + Epitope: S; literature source; cited from earlier work
# SARS-CoV1 [5] = conditions: cited from earlier work
# SARS-CoV2 S; RBD = SARS-CoV2 S; RBD (Severe acute respiratory syndrome coronavirus 2, UniProt P0DTC2); conditions: epitope S; cited from earlier work
# SARS-CoV1 [6] = conditions: cited from earlier work; remark: listed apart in the source
# [7] = mouse, in vivo
# SARS-CoV2 [8] = conditions: SARS-CoV2 listed as neutralised; cited from earlier work
# SARS-CoV2 [9] = conditions: SARS-CoV2 listed as bound; cited from earlier work
# SARS-CoV2 [10] = conditions: source Seth Zost et al., 2020; cited from earlier work
# [11] = Serum ALT/AST levels (toxicity) after liposome and DNA injection
# [12] = Serum hG-CSF protein by ELISA after DOTAP liposomes, hG-CSF plasmid DNA and immuno-modulating agents; assay type: in vivo, CD-1 mice
# mouse IGF-1 = assay: Serum levels of mouse IGF-1 by ELISA (hGH bioactivity); assay type: in vivo; conditions: CD-1 mice, day 127 after injection (Example 10)
# [13] = IP 2 hours prior to lipid and DNA injection (Example 20 Part 4)
# [14] = agent in liposomes pre-injected IP prior to cationic liposomes (Example 16 Part 3)
# [15] = agent incorporated into cationic liposomes (900 nmol DOTAP SUV), 70 ug hG-CSF DNA, day 1
compound,measurement,setting,value
4A8,Neutralising Vs,[1],SARS-CoV2
same,Binds to,[2],SARS-CoV2
C[C@@H]1C[C@H]2[C@@H]3CCC4=CC(=O)C=C[C@]4(C)[C@@]3(F)[C@@H](O)C[C@]2(C)[C@@]1(O)C(=O)CO [dexamethasone],critical toxicity markers,[3],at or closely approximating background control levels
B38,Binds to,SARS-CoV2 [4],SARS-CoV2
BD23,Binds to,SARS-CoV2 [4],SARS-CoV2
C002,Binds to,SARS-CoV2 [4],SARS-CoV2
same,Not Neutralising Vs,SARS-CoV1 [5],SARS-CoV1
C003,Binds to,SARS-CoV2 [4],SARS-CoV2
same,Not Neutralising Vs,SARS-CoV1 [5],SARS-CoV1
C005,Binds to,SARS-CoV2 [4],SARS-CoV2
same,Not Neutralising Vs,SARS-CoV1 [5],SARS-CoV1
C006,Binds to,SARS-CoV2 [4],SARS-CoV2
same,Not Neutralising Vs,SARS-CoV1 [5],SARS-CoV1
C013,Binds to,SARS-CoV2 [4],SARS-CoV2
same,Not Neutralising Vs,SARS-CoV1 [5],SARS-CoV1
C016,Binds to,SARS-CoV2 [4],SARS-CoV2
same,Not Neutralising Vs,SARS-CoV1 [5],"SARS-CoV1,"
C018,Binds to,SARS-CoV2 S; RBD,SARS-CoV2
same,Not Neutralising Vs,SARS-CoV1 [6],"SARS-CoV1,"
C021,Binds to,SARS-CoV2 S; RBD,SARS-CoV2
same,Not Neutralising Vs,SARS-CoV1 [6],"SARS-CoV1,"
C029,Binds to,SARS-CoV2 S; RBD,SARS-CoV2
same,Not Neutralising Vs,SARS-CoV1 [6],"SARS-CoV1,"
C102,Binds to,SARS-CoV2 S; RBD,SARS-CoV2
C107,Binds to,SARS-CoV2 S; RBD,SARS-CoV2
same,Not Neutralising Vs,SARS-CoV1 [6],"SARS-CoV1,"
C112,Binds to,SARS-CoV2 S; RBD,SARS-CoV2
C119,Binds to,SARS-CoV2 S; RBD,SARS-CoV2
C121,Binds to,SARS-CoV2 S; RBD,SARS-CoV2
same,duration of fully neutralizing serum levels of each SARS-CoV2-specific mAb,[7],at least 134 days
CB6,Neutralising Vs,SARS-CoV2 [8],SARS-CoV2
same,Binds to,SARS-CoV2 [9],SARS-CoV2
CoV2-2130,Binds to,SARS-CoV2 [10],SARS-CoV2
CoV2-2196,Binds to,SARS-CoV2 [10],SARS-CoV2
N-Acetyl-De-O-Sulfated Heparin [NSH],toxicity (serum ALT/AST),"[11]; IP 0.25 or 1 mg per mouse, 2 hours pre or 2 hours post lipid and DNA injection",reduce toxicity
same,toxicity (serum ALT/AST),[11]; [13],further reducing its toxicity
same,gene expression (serum hG-CSF),[12]; [13],further increase gene expression
dexamethasone 21-palmitate [dexamethasone palmitate],toxicity (ALT levels),[11]; [14],further decrease toxicity
same,toxicity (ALT levels),[11]; [15],further decrease toxicity
same,peak levels of gene expression (serum hG-CSF),"[12]; 5 mole percent in DOTAP SUV, otherwise ineffective hG-CSF-DNA dose (Example 16 Part 6)",further increase peak levels of gene expression
same,gene expression (serum hG-CSF),[12]; [14],further increase gene expression
same,gene expression (serum hG-CSF),[12]; [15],further increase gene expression
hGH,bioactivity of cDNA-encoded hGH protein (increase of endogenous mouse IGF-1),mouse IGF-1,fully bioactive
